We go through three molecules from article PMC7830303, “Development of Antimicrobial Stapled Peptides Based on Magainin 2 Sequence” (Molecules, 2021).

The conditions of series [1]: pH 7.4.
For the next series, the system named is Escherichia coli DH5α. The class given is cell-based. The settings on record: 16 h. As for the experimental part: (§1) Selected bacterial strains were obtained from Biological Resource Center, NITE (NBRC; Tokyo, Japan). E. coli DH5α was purchased from BioDynamics Laboratory, Inc. (Tokyo, Japan). The antimicrobial activities of the peptides against the gram-positive S. aureus and gram-negative E. coli DH5α, P. aeruginosa, and MDRP were measured using standard broth microdilution method as previously described. Briefly, the bacteria were inoculated and grown overnight at 37 °C on agar media for other organisms i and then collected with liquid media for other organisms ii, according to Japanese Pharmacopoeia, 17th Edition. Each peptide was 2-fold serially diluted with an initial concentration of 500 μM to a final concentration of 1 μM using PBS. Then, 10 μL of the peptide solution was added to each well of a sterile 96-well plate. Subsequently, 90 μL of inoculation with 10^4 colony forming units (CFUs) per mL were added to each well, and the plate was incubated at 35 °C for 16 h.

The test system of a further series is Staphylococcus aureus. The class given is cell-based. The settings on record: 16 h. As for the experimental part:
as §1

Another series deals with Pseudomonas aeruginosa. The series is classed as cell-based. The settings on record: 16 h. The method, then:
as §1

For series [2], the system named is multiple-drug resistant P. aeruginosa (MDRP). The class given is cell-based, Pseudomonas aeruginosa. The settings on record: multiple-drug resistant (MDRP, 16 h). The method, then: as §1
A further series has as its system digestive enzymes. Conditions: cited from earlier work. The source says: Mag2 comprises cationic and hydrophobic amino acid residues and employs a helical structure […]. These properties are required for interaction with microbial membranes, and subsequent Mag2 insertions into membranes induce bacterial pore formation and ion efflux to exert their antimicrobial activity. The antimicrobial activity of AMPs targets the bacterial ...

In brackets after ≈: the same amount, converted by molar mass. Bridge positions count the residues as written; N and C are the ends. Square brackets hold non-standard residues; d marks the D form. Peptide text beside a SMILES is read from it. * marks the point of attachment. Stearoyl = CCCCCCCCCCCCCCCCCC(=O)*; S5 = C=CCCC[C@](C)(N)C(=O)O; Aib = CC(C)(N)C(=O)O

Regarding `CCCCCCCCCCCCCCCCCC(=O)N[C@@]1(C)CCCC=CCCC[C@@](C)(C(=O)N[C@@H](CC(C)C)C(=O)N[C@@H](CCCCN)C(=O)N[C@@H](CO)C(=O)N[C@@H](C)C(=O)N[C@@H](CCCCN)C(=O)N[C@@H](CCCCN)C(=O)N[C@@H](Cc2ccccc2)C(=O)N[C@H](C(=O)N[C@@H](CCCCN)C(=O)N[C@@H](C)C(=O)N[C@@H](Cc2ccccc2)C(=O)N[C@@H](CCCCN)C(N)=O)C(C)C)NC(=O)[C@H](CCCCN)NC(=O)[C@H](CCCCN)NC(=O)[C@H]([C@@H](C)CC)NC1=O` [Peptide C18-2] (Stearoyl-[S5]IKK[S5]LKSAKKFVKAFK-NH2; staple 1-5), the “Solubility in the aqueous buffer solution” value in series [1] is “poor solubility”. In addition, the “MIC, Gram Negative, E.c. (DH5α)” value in the series with Escherichia coli DH5α was above 50 µM. In addition, the “MIC, Gram Positive, S.a.” value against Staphylococcus aureus was above 50 µM. For the same molecule, in the series on Pseudomonas aeruginosa, the “MIC, Gram Negative, P.a.” value is listed as above 50 µM. In series [2], the “MIC, Gram Negative, MDRP” value is reported as above 50 µM.

`CC[C@H](C)[C@H](NC(=O)CN)C(=O)N[C@@H](CCCCN)C(=O)N[C@@H](CCCCN)C(=O)N[C@@H](Cc1ccccc1)C(=O)N[C@@H](CC(C)C)C(=O)N[C@@H](CCCCN)C(=O)N[C@@H](CO)C(=O)NC(C)(C)C(=O)N[C@@H](CCCCN)C(=O)N[C@@H](CCCCN)C(=O)N[C@@H](Cc1ccccc1)C(=O)N[C@H](C(=O)N[C@@H](CCCCN)C(=O)NC(C)(C)C(=O)N[C@@H](Cc1ccccc1)C(=O)N[C@@H](CCCCN)C(N)=O)C(C)C` [Peptide 1, reference compound] (H-GIKKFLKS[Aib]KKFVK[Aib]FK-NH2): the “MIC, Gram Negative, E.c. (DH5α)” value against Escherichia coli DH5α stood at 3.125 µM (≈ 6.24 µg/mL). The “MIC, Gram Positive, S.a.” value with Staphylococcus aureus is on record as 12.5 µM (≈ 24.9 µg/mL). Further, in the series with Pseudomonas aeruginosa, the “MIC, Gram Negative, P.a.” value was determined as 3.125 µM (≈ 6.24 µg/mL). For the same molecule, the “MIC, Gram Negative, MDRP” value in series [2] was 3.125 µM (≈ 6.24 µg/mL). For the same molecule, the “Resistance against digestive enzymes” value with digestive enzymes is reported as “showed resistance against digestive enzymes”.

In the case of `CC[C@H](C)[C@H](NC(=O)CN)C(=O)N[C@@H](CCCCN)C(=O)N[C@@H](CCCCN)C(=O)N[C@@H](Cc1ccccc1)C(=O)N[C@@H](CC(C)C)C(=O)N[C@@H](CCCCN)C(=O)N[C@@H](CO)C(=O)N[C@@H](C)C(=O)N[C@@H](CCCCN)C(=O)N[C@@H](CCCCN)C(=O)N[C@@]1(C)CCCC=CCCC[C@@](C)(C(=O)N[C@@H](CCCCN)C(N)=O)NC(=O)[C@H](C)NC(=O)[C@H](CCCCN)NC(=O)[C@H](C(C)C)NC1=O` [Peptide 6] (H-GIKKFLKSAKK[S5]VKA[S5]K-NH2; staple 12-16), the “MIC, Gram Negative, E.c. (DH5α)” value with Escherichia coli DH5α came to 1.56 µM (≈ 3 µg/mL). Besides, the “MIC, Gram Positive, S.a.” value against Staphylococcus aureus is 3.125 µM (≈ 6.01 µg/mL). Also, the “MIC, Gram Negative, P.a.” value in the series with Pseudomonas aeruginosa is listed as 1.56 µM (≈ 3 µg/mL). Also, the “MIC, Gram Negative, MDRP” value in series [2] was found to be 0.78 µM (≈ 1.5 µg/mL).
